In ChEMBL document CHEMBL1909046, “DrugMatrix in vitro pharmacology data”:

Columns and labels:
[1] = molecular target: 5-hydroxytryptamine receptor 4 (Cavia porcellus, UniProt O70528); type: cell membranes, Dunkin-Hartley, Striatum, Membrane; details: for Ki: read-out: Ki; on all read-outs here: in other assays of this panel Not Active means under 50% inhibition at 10 µM
[2] = molecular target: T1, D(4) dopamine receptor (Homo sapiens, UniProt P21917); assay: DRUGMATRIX: Dopamine D4.2 radioligand binding (ligand: [3H] Spiperone); type: cell membranes, CHO-K1, Membrane; details: Not Active = under 50% inhibition at 10 µM; for Ki: read-out: Ki
T1 sequence (P21917 whole entry): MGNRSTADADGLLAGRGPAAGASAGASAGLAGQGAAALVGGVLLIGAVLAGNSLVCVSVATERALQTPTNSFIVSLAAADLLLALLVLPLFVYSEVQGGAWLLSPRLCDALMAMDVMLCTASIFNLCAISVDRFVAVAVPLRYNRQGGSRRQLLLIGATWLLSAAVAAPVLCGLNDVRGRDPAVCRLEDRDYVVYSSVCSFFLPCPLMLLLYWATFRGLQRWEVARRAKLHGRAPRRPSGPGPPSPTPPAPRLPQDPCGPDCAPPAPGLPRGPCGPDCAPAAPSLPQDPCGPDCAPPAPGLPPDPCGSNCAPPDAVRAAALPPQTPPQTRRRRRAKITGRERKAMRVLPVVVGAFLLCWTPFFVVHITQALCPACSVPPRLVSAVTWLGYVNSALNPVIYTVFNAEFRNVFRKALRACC

[3] = molecular target: Histamine H2 receptor (Homo sapiens, UniProt P25021); type: cell membranes, CHO-K1, Membrane; further: in other assays of this panel Not Active means under 50% inhibition at 10 µM
Sequence of Histamine H2 receptor (P25021 whole entry): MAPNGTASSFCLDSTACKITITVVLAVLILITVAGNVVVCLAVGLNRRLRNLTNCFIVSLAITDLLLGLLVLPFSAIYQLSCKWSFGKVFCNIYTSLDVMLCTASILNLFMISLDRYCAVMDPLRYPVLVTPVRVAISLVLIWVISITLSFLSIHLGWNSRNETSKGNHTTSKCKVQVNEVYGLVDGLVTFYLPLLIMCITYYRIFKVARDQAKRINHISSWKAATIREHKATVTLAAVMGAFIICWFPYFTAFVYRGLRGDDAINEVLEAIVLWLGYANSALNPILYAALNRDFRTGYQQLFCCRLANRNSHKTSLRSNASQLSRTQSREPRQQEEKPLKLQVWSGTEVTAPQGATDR

[4] = molecular target: Platelet-activating factor receptor (Homo sapiens, UniProt P25105); type: tissue-based; further: in other assays of this panel Not Active means under 50% inhibition at 10 µM
Sequence of Platelet-activating factor receptor (P25105 whole entry): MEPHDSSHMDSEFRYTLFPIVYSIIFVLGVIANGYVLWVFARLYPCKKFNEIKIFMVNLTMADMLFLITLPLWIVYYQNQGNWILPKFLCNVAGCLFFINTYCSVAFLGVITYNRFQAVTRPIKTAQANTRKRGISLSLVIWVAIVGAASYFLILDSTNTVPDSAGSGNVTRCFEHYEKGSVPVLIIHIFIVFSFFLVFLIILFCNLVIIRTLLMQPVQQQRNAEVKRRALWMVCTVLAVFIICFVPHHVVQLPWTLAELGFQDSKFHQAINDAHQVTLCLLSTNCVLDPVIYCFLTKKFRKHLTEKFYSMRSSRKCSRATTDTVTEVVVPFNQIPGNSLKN

[5] = molecular target: Protein phosphatase 3 catalytic subunit alpha (Homo sapiens, UniProt Q08209); parameters: species or system Escherichia coli;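 further: inhibition of calcineurin (PP2B) enzyme activity, measured with DiFMUP as the substrate; in other assays of this panel Not Active means under 50% inhibition at 10 µM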
[6] = molecular target: Cytochrome P450 2D6 (Homo sapiens, UniProt P10635); details: bti-tn-5b1-4; further: in other assays of this panel Not Active means under 50% inhibition at 10 µM
Sequence of Cytochrome P450 2D6 (P10635 whole entry): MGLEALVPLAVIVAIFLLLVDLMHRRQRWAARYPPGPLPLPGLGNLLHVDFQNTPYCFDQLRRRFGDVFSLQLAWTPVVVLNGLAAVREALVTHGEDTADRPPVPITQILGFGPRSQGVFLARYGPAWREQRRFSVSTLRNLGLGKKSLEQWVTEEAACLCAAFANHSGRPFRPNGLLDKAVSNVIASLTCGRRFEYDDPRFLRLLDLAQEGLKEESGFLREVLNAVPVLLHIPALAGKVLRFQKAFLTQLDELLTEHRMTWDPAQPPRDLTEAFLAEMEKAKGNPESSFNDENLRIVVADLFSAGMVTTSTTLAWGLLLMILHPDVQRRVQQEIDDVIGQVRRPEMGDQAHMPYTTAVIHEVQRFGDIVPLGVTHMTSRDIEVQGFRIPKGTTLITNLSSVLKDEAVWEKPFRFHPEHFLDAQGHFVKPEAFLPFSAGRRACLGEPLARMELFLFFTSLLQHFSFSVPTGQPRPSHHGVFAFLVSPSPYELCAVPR

Sequence of 5-hydroxytryptamine receptor 4 (O70528 whole entry): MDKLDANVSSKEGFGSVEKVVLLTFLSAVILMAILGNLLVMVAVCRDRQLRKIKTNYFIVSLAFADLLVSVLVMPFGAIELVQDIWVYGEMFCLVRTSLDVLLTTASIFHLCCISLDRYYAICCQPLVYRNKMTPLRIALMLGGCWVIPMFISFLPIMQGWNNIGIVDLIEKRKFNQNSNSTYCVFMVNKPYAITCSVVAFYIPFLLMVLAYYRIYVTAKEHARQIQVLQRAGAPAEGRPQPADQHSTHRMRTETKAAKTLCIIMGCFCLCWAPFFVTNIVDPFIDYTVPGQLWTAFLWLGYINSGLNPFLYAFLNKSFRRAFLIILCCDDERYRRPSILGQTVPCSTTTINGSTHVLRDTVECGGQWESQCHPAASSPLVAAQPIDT

Row | SMILES | IC50 [1] | IC50 ([2]; cho-k1) | IC50 ([3]; cho-k1) | IC50 [4] | IC50 [5] | IC50 [6] | Ki [6] | IC50 ([2]; read-out: IC50) | Ki [2] | IC50 ([1]; read-out: IC50) | Ki [1] | IC50 ([3]; read-out: IC50) | Ki ([3]; read-out: Ki) | IC50 ([5]; read-out: IC50)
1 | CC(C)(C)NC(=O)[C@@H]1C[C@@H]2CCCC[C@@H]2CN1C[C@@H](O)[C@H](Cc1ccccc1)NC(=O)[C@H](CC(N)=O)NC(=O)c1ccc2ccccc2n1 | Not Active | Not Active | Not Active | Not Active | Not Active | Not Active | Not Active | – | – | – | – | – | – | –
2 | CC(=O)[C@@]1(O)CC[C@H]2[C@@H]3C[C@H](C)C4=CC(=O)CC[C@]4(C)[C@H]3CC[C@@]21C | Not Active | Not Active | Not Active | Not Active | Not Active | Not Active | Not Active | – | – | – | – | – | – | –
3 | N[C@@H](Cc1ccc(N(CCCl)CCCl)cc1)C(=O)O | Not Active | Not Active | Not Active | Not Active | Not Active | Not Active | Not Active | – | – | – | – | – | – | –
4 | CCCCc1oc2ccccc2c1C(=O)c1cc(I)c(OCCN(CC)CC)c(I)c1 [AMIODARONE] | Not Active | – | – | Not Active | Not Active | – | – | 17.7 µM | 6.21 µM | – | – | – | – | –
5 | OCCN(CCO)c1nc(N2CCCCC2)c2nc(N(CCO)CCO)nc(N3CCCCC3)c2n1 [DIPYRIDAMOLE] | Not Active | Not Active | Not Active | Not Active | Not Active | Not Active | Not Active | – | – | – | – | – | – | –
6 | Cc1oncc1C(=O)Nc1ccc(C(F)(F)F)cc1 [LEFLUNOMIDE] | Not Active | Not Active | Not Active | Not Active | Not Active | Not Active | Not Active | – | – | – | – | – | – | –
7 | c1ccc([C@H]2CN3CCSC3=N2)cc1 [LEVAMISOLE] | Not Active | Not Active | Not Active | Not Active | Not Active | Not Active | Not Active | – | – | – | – | – | – | –
8 | N[C@@H](Cc1ccc(O)c(O)c1)C(=O)O [LEVODOPA] | Not Active | Not Active | Not Active | Not Active | Not Active | Not Active | Not Active | – | – | – | – | – | – | –
9 | N[C@@H](Cc1cc(I)c(Oc2ccc(O)c(I)c2)c(I)c1)C(=O)O [LIOTHYRONINE] | Not Active | Not Active | Not Active | Not Active | Not Active | Not Active | Not Active | – | – | – | – | – | – | –
10 | O=NN(CCCl)C(=O)NC1CCCCC1 [LOMUSTINE] | Not Active | Not Active | Not Active | Not Active | Not Active | Not Active | Not Active | – | – | – | – | – | – | –
11 | CCOC(=O)N1CCC(=C2c3ccc(Cl)cc3CCc3cccnc32)CC1 [LORATADINE] | Not Active | Not Active | Not Active | Not Active | Not Active | – | – | – | – | – | – | – | – | –
12 | Cn1ccnc1S [METHIMAZOLE] | Not Active | Not Active | Not Active | Not Active | Not Active | Not Active | Not Active | – | – | – | – | – | – | –
13 | CC[C@@H](CO)NC(=O)[C@@H]1C=C2c3cccc4[nH]cc(c34)C[C@H]2N(C)C1 [METHYLERGONOVINE] | Not Active | Not Active | Not Active | Not Active | Not Active | – | – | – | – | – | – | – | – | –
14 | COc1nc(C)nc(Cl)c1NC1=NCCN1 [MOXONIDINE] | Not Active | Not Active | Not Active | Not Active | Not Active | Not Active | Not Active | – | – | – | – | – | – | –
15 | COc1c(C)c2c(c(O)c1C/C=C(\C)CCC(=O)O)C(=O)OC2 [MYCOPHENOLIC ACID] | Not Active | Not Active | Not Active | Not Active | Not Active | Not Active | Not Active | – | – | – | – | – | – | –
16 | O=c1ncn2nc(Sc3ccc(F)cc3F)ccc2c1-c1c(Cl)cccc1Cl [NEFLAMAPIMOD] | Not Active | Not Active | Not Active | Not Active | Not Active | Not Active | Not Active | – | – | – | – | – | – | –
17 | CN1CCN(CCCN2c3ccccc3Sc3ccc(Cl)cc32)CC1 [PROCHLORPERAZINE] | – | – | Not Active | Not Active | Not Active | – | – | 2.31 µM | 0.81 µM | 1.16 µM | 0.194 µM | – | – | –
18 | CO[C@H]1/C=C/O[C@@]2(C)Oc3c(C)c(O)c4c(O)c(c(/C=N/N5CCN(C)CC5)c(O)c4c3C2=O)NC(=O)/C(C)=C\C=C\[C@H](C)[C@H](O)[C@@H](C)[C@@H](O)[C@@H](C)[C@H](OC(C)=O)[C@@H]1C [RIFAMPIN] | Not Active | Not Active | Not Active | Not Active | Not Active | Not Active | Not Active | – | – | – | – | – | – | –

Row | SMILES | IC50 [1] | IC50 ([2]; cho-k1) | IC50 ([3]; cho-k1) | IC50 [4] | IC50 [5] | IC50 [6] | Ki [6] | IC50 ([2]; read-out: IC50) | Ki [2] | IC50 ([1]; read-out: IC50) | Ki [1] | IC50 ([3]; read-out: IC50) | Ki ([3]; read-out: Ki) | IC50 ([5]; read-out: IC50)
19 | Nc1nc2ccc(OC(F)(F)F)cc2s1 [RILUZOLE] | Not Active | Not Active | Not Active | Not Active | Not Active | – | – | – | – | – | – | – | – | –
20 | Cc1nc2n(c(=O)c1CCN1CCC(c3noc4cc(F)ccc34)CC1)CCCC2 [RISPERIDONE] | Not Active | Not Active | – | Not Active | Not Active | – | – | – | – | – | – | – | – | –
21 | C=CCC1(C(C)CCC)C(=O)NC(=O)NC1=O (stereo not drawn) [SECOBARBITAL] | Not Active | Not Active | Not Active | Not Active | Not Active | Not Active | Not Active | – | – | – | – | – | – | –
22 | C[C@@H]1CN(c2c(F)c(N)c3c(=O)c(C(=O)O)cn(C4CC4)c3c2F)C[C@H](C)N1 [SPARFLOXACIN] | Not Active | Not Active | Not Active | Not Active | Not Active | Not Active | Not Active | – | – | – | – | – | – | –
23 | Cc1noc(NS(=O)(=O)c2ccc(N)cc2)c1C [SULFISOXAZOLE] | Not Active | Not Active | Not Active | Not Active | Not Active | Not Active | Not Active | – | – | – | – | – | – | –
24 | CSc1ccc(/C=C2/C(C)=C(CC(=O)O)c3cc(F)ccc32)cc1 [SULINDAC SULFIDE] | Not Active | Not Active | Not Active | Not Active | Not Active | Not Active | Not Active | – | – | – | – | – | – | –
25 | Nc1c2c(nc3ccccc13)CCCC2 [TACRINE] | Not Active | Not Active | Not Active | Not Active | Not Active | – | – | – | – | – | – | – | – | –
26 | CC/C(=C(\c1ccccc1)c1ccc(OCCN(C)C)cc1)c1ccccc1 [TAMOXIFEN] | Not Active | – | – | Not Active | – | – | – | 11.2 µM | 3.91 µM | – | – | 9.4 µM | 9.24 µM | 30.6 µM
27 | CC(C)N1CCN(c2ccc(OCC3COC(Cn4cncn4)(c4ccc(Cl)cc4Cl)O3)cc2)CC1 (stereo not drawn) [TERCONAZOLE] | – | Not Active | Not Active | Not Active | Not Active | Not Active | Not Active | – | – | 14.8 µM | 2.46 µM | – | – | –
28 | Nc1nc2nc[nH]c2c(=S)[nH]1 [THIOGUANINE] | Not Active | Not Active | Not Active | Not Active | Not Active | Not Active | Not Active | – | – | – | – | – | – | –
29 | Cc1cccc(N(C)C(=S)Oc2ccc3ccccc3c2)c1 [TOLNAFTATE] | Not Active | Not Active | Not Active | Not Active | Not Active | Not Active | Not Active | – | – | – | – | – | – | –
30 | NC[C@H]1CC[C@H](C(=O)O)CC1 [TRANEXAMIC ACID] | Not Active | Not Active | Not Active | Not Active | Not Active | Not Active | Not Active | – | – | – | – | – | – | –
31 | CC1(C)O[C@@H]2C[C@H]3[C@@H]4CCC5=CC(=O)C=C[C@]5(C)[C@@]4(F)[C@@H](O)C[C@]3(C)[C@]2(C(=O)CO)O1 [TRIAMCINOLONE ACETONIDE] | Not Active | Not Active | Not Active | Not Active | Not Active | Not Active | Not Active | – | – | – | – | – | – | –
32 | NS(=O)(=O)c1cc2c(cc1Cl)NC(C(Cl)Cl)NS2(=O)=O (stereo not drawn) [TRICHLORMETHIAZIDE] | Not Active | Not Active | Not Active | Not Active | Not Active | Not Active | Not Active | – | – | – | – | – | – | –
33 | Cc1c(C)c2c(c(C)c1O)CCC(C)(COc1ccc(CC3SC(=O)NC3=O)cc1)O2 (stereo not drawn) [TROGLITAZONE] | Not Active | Not Active | Not Active | Not Active | Not Active | Not Active | Not Active | – | – | – | – | – | – | –
34 | N[C@@H]1[C@H]2CN(c3nc4c(cc3F)c(=O)c(C(=O)O)cn4-c3ccc(F)cc3F)C[C@@H]12 [TROVAFLOXACIN] | Not Active | Not Active | Not Active | Not Active | Not Active | Not Active | Not Active | – | – | – | – | – | – | –
35 | N#CC(C#N)=Cc1ccc(O)c(O)c1 [TYRPHOSTIN 23] | Not Active | Not Active | Not Active | Not Active | Not Active | Not Active | Not Active | – | – | – | – | – | – | –
